Read-outs that look alike come from different tables or passages of the source.
Key:
HUVEC = assay: XTT cytotoxicity/proliferation assay, HUVEC; format: cell-based, human; settings: Homo sapiens, HUVEC
How it was run: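 HUVEC (passages 3–8, collagen I-coated dishes, E-STIM medium) plated at 3000 cells/well, dosed next day with compounds in water. After 72 h at 37 °C, XTT added for 2 h; absorbance at 492 nm (reference 690 nm) against untreated and medium-only controls.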

c-myc protein = assay: Immunodetection of protein c-myc in HGC-27 cell lysates (Western blot); format: cell-based, human; settings: 50 μmol · l^−1, 24 hour incubation, normalized to β-actin
How it was run: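 HGC-27 cells seeded at 25,000 cells/cm^2, treated next day with 50 μmol·l^−1 helquat for 24 h. RIPA lysates separated by 12% SDS-PAGE, blotted and probed for c-myc with β-actin loading control; chemiluminescence densitometry, c-myc normalized to β-actin and expressed relative to untreated control.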

[1] = 72 hours of treatment, values above 100 μmol·l^−1 obtained by extrapolation, read-out: IC50 HUVEC
[2] = 72 hours, summary of table 9, read-out: concentrations non-toxic towards HUVEC cells

Row | Structure (SMILES) | IC50 (HUVEC; [1]) [µM] | IC50 (HUVEC; [2]) [µM] | c-myc protein expression relative to control (control = 100%) (c-myc protein) [%]
1 | O=[N+]([O-])c1cccc2[nH]cc(/C=C/c3cc[n+]4c(c3)-c3c(ccc5c3-c3cccc[n+]3CC5)CC4)c12 (racemic) [LSA-C9-32, (rac)-(E)-2-(2-(4-nitro-1H-indol-3-yl)vinyl)-6,7,10,11-tetrahydrodipyrido[2,1-a:1′,2′-k][2,9]phenanthroline-5,12-diium trifluoromethanesulfonate] | ≥ 100 | > 100 | 
2 | Brc1ccc2[nH]cc(/C=C/c3cc4ccccc4[n+]4c3-c3c(ccc5c3-c3cccc[n+]3CCC5)CCC4)c2c1.O=S(=O)([O-])C(F)(F)F.O=S(=O)([O-])C(F)(F)F [MSC-C9-30, 19-((E)-2-(5-bromo-1H-indol-3-yl)vinyl)-6,7,8,11,12,13-hexahydropyrido[1′″,2′″:1″,2″]azepino[4″,3″:5′,6′]benzo[1′,2′:3,4]azepino[1,2-a]quinoline-5,14-diium trifluoromethanesulfonate] | ≥ 100 | > 100 | 14
3 | C(=C\c1cccc2c1oc1ccccc12)/c1cc[n+]2c(c1)-c1c(ccc3c1-c1c4ccccc4cc[n+]1CC3)CC2.O=S(=O)([O-])C(F)(F)F.O=S(=O)([O-])C(F)(F)F [MSB-C13-8, (E)-13-(2-(dibenzo[b,d]furan-4-yl)vinyl)-4,5,8,9-tetrahydroisoquinolino[1,2-a]pyrido[1,2-k][2,9]phenanthroline-3,10-diium trifluoromethanesulfonate] | ≥ 100 |  | 
4 | Cc1c(C)c2c(c3c1CC[n+]1ccc(/C=C/c4cccc5c4oc4ccccc45)cc1-3)-c1c3ccccc3cc[n+]1CC2 (racemic) [MJA-C13-8, (rac)-(E)-13-(2-(dibenzo[b,d]furan-4-yl)vinyl)-6,7-dimethyl-4,5,8,9-tetrahydroisoquinolino[1,2-a]pyrido[1,2-k][2,9]phenanthroline-3,10-diium trifluoromethanesulfonate] | ≥ 100 |  | 58
5 | C(=C\c1c(-c2ccccc2)[nH]c2ccccc12)/c1cc2ccccc2[n+]2c1-c1c(ccc3c1-c1cccc[n+]1CCC3)CCC2.O=S(=O)([O-])C(F)(F)F.O=S(=O)([O-])C(F)(F)F [MSC-C15-8, 19-((E)-2-(2-phenyl-1H-indol-3-yl)vinyl)-6,7,8,11,12,13-hexahydropyrido[1′″,2′″:1″,2″]azepino[4″,3″:5′,6′]benzo[1′,2′:3,4]azepino[1,2-a]quinoline-5,14-diium trifluoromethanesulfonate] | ≥ 51 |  | 58

From patent publication US9932339B2, “Helquats with heteroaromatic substituents, preparation thereof, and use thereof as G-quadruplex stabilizers” (USTAV ORGANICKE CHEMIE A BIOCHEMIE AV CR, V.V.I., priority 2014, dated 2018)
